How the values were obtained:
EZH1 = target: T1, EZH1 (Homo sapiens, UniProt Q92800); test: Inhibitory activity against EZH1 methyltransferase (radiometric scintillation proximity assay); assay type: biochemical; details: 2.3 nmol/L enzyme, 90 minutes, room temperature;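 further: Read-out is methylation of a substrate peptide, captured on streptavidin-coated SPA beads and counted by scintillation, in Tris-HCl buffer at pH 8.0 with 1% DMSO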
T1 construct: purchased Reaction Biology Corp. (contract assay)
Method: The inhibitory activities of the synthetic compounds against EZH1 or EZH2 methyltransferase were measured. The experiment was conducted by Reaction Biology Corp., and the activity of EZH1 or EZH2 was measured using a radiometric scintillation proximity assay. […] The reaction buffer consisted of 50 mmol/L Tris-HCl (pH 8.0), 50 mmol/L NaCl, 1 mmol/L EDTA, 1 mmoL/L DTT, 1 mmol/L PMSF, and 1% DMSO. Trichloroacetic acid was added to terminate the reaction, and PVT streptavidin-coated SPA beads were added to each reaction solution, followed by further reaction at room temperature for 1 hour again. The methylation value of the substrate peptide was measured using the TopCount NXT plate reader.

EZH2 = EZH2 (Homo sapiens, UniProt Q15910); test: Inhibitory activity against EZH2 methyltransferase (radiometric scintillation proximity assay); details: Enzyme inhibitory activity (IC50, nM) EZH2, 2.3 nmol/L enzyme, 90 minutes, room temperature;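 further: Read-out is substrate peptide methylation, captured on streptavidin-coated SPA beads and counted by scintillation, with the reaction run in Tris-HCl buffer at pH 8.0 containing 1% DMSO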
[1] = test system: KARPAS-422 (EZH2 Y641N mutation); test: Cell growth inhibition test, KARPAS-422; assay type: cell-based; details: Homo sapiens, KARPAS-422, 168 h, KARPAS-422, culture time 7 days; read-out: Cell growth inhibitory activity (GI50, nM) KARPAS-422 (EZH2 Y641N mutation)
Method: Each type of the cultured cells was seeded in 6-well plates or 48-96 well plates, and subculture or medium replacement was performed every 3 to 4 days. Next, the cells were subcultured for a total of 7 to 14 days, and then seeded in 96-well plates. 3 to 5 days before the measurement of the effect, the cells were seeded in 96-well plates, and then the absorbance (Tz) on the day of seeding was measured. The absorbance after the reaction was measured by the plate reader device Synergy NeoAlpha (Biotek) using Cell-Titer-Glo Cell Viability Assay (Promega, G7573) according to the attached manual. Based on the absorbance (Tz) measured on the seeding day and the absorbance of each of the DMSO-treated group (C) and the sample-added group (Ti) measured on the day of effect determination, the percentage of cell proliferation inhibition was calculated according to the following Equation 1. [(Ti−Tz)/(C−Tz)]×100 for concentrations for which Ti≥Tz […] for concentrations for which Ti<Tz. [Equation 1]

EZH2, sequence (Q15910 whole entry): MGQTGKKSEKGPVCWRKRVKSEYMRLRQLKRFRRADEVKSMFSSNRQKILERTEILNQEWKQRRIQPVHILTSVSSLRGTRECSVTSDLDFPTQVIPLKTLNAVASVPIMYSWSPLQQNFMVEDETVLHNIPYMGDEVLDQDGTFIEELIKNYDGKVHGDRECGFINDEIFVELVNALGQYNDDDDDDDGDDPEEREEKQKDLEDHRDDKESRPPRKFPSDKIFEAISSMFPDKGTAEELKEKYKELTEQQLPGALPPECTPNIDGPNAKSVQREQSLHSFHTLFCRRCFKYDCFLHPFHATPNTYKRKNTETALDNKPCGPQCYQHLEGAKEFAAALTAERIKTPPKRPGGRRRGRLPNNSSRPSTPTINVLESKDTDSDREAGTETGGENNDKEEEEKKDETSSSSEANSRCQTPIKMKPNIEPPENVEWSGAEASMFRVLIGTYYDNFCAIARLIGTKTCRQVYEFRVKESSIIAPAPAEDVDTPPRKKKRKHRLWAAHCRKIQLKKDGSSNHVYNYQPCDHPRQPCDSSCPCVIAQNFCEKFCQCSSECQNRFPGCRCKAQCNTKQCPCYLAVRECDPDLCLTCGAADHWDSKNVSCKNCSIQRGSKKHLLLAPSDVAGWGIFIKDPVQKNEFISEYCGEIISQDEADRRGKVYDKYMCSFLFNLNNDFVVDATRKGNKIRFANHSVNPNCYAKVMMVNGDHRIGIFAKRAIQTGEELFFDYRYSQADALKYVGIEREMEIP
EZH2, sequence (O75530 whole entry partner): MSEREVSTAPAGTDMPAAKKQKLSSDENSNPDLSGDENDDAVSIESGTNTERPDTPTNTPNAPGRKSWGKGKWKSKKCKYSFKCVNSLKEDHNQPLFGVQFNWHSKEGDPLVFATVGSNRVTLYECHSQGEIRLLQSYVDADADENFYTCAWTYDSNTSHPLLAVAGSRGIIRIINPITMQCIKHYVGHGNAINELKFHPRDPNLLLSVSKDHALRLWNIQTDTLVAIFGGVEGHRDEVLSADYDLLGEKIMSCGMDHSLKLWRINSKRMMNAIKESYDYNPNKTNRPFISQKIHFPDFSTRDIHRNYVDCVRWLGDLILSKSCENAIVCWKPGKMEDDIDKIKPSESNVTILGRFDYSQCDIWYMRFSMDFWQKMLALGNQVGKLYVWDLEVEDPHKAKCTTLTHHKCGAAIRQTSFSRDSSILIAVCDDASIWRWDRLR
EZH2, sequence (Q15022 whole entry partner): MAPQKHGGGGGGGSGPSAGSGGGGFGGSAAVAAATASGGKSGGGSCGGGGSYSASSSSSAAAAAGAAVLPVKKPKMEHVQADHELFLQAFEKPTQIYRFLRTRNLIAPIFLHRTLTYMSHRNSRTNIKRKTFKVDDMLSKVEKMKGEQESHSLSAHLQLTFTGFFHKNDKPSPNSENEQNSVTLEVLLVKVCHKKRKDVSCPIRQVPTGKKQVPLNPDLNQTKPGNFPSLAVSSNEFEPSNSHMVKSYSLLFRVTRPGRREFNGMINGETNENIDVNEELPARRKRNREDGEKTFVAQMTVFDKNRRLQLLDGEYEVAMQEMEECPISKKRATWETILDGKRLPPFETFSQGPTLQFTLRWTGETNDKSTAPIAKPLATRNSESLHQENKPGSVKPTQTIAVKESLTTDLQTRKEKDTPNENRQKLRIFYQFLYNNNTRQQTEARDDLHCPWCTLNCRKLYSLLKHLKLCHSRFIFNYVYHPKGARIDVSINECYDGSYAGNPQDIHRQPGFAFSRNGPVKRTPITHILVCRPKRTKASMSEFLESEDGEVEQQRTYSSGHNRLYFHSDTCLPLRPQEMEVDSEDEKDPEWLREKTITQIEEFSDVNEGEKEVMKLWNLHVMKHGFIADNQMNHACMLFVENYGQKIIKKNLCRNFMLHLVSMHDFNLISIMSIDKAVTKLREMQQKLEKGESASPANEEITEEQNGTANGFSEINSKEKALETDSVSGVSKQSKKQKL
EZH2, sequence (Q09028 whole entry partner): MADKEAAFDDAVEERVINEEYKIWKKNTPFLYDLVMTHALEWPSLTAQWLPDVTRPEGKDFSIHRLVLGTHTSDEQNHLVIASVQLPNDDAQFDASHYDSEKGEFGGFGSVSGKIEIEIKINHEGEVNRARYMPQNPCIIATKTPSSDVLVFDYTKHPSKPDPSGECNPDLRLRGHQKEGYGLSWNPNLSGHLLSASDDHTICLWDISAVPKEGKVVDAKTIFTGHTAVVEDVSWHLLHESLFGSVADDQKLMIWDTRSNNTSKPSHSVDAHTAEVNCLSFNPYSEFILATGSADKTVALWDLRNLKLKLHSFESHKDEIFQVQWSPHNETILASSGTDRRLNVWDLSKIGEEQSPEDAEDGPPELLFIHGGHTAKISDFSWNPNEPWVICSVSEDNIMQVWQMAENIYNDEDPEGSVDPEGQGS
EZH2, sequence (Q6ZN18 whole entry partner): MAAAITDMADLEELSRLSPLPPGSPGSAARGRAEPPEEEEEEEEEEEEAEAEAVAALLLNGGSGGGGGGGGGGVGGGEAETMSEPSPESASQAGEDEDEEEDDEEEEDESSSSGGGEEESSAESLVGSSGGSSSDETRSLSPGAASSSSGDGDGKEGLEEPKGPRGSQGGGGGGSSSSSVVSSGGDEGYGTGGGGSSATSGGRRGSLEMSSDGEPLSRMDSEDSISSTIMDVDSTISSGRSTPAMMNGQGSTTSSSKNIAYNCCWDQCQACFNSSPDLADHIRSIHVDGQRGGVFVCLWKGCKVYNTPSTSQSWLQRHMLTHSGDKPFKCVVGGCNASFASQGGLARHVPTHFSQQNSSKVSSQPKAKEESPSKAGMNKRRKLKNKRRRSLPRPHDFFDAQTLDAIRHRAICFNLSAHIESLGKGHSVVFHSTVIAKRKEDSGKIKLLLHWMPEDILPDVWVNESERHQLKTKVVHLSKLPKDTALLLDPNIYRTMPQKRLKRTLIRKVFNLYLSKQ
T1 sequence (Q92800 whole entry): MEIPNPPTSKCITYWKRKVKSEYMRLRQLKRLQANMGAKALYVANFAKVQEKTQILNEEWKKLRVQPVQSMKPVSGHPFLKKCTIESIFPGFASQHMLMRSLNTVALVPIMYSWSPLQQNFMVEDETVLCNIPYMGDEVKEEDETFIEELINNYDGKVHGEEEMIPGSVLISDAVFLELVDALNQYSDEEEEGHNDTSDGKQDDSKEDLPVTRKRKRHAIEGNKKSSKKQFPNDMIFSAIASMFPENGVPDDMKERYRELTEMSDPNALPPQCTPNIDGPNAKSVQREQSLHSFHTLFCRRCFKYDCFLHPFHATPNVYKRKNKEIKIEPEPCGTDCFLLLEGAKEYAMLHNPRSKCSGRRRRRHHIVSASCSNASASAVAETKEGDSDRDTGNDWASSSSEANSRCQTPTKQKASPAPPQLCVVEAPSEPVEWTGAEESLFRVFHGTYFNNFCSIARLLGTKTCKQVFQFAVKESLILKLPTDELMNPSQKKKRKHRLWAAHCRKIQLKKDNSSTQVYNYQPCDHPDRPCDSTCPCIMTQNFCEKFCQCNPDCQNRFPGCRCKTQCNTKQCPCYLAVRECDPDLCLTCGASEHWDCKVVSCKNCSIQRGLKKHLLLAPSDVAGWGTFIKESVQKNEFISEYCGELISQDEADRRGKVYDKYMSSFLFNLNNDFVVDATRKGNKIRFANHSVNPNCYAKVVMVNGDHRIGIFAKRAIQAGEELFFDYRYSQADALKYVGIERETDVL
T1 sequence (O75530 whole entry partner): as the sequence (O75530 whole entry partner) above
T1 sequence (Q15022 whole entry partner): as the sequence (Q15022 whole entry partner) above
T1 sequence (Q09028 whole entry partner): as the sequence (Q09028 whole entry partner) above
T1 sequence (Q6ZN18 whole entry partner): as the sequence (Q6ZN18 whole entry partner) above

Cc1cc(C)c(CN2CCc3cc4c(c(C)c3C2=O)OC(C)([C@H]2CC[C@H](N(C)C)CC2)O4)c(=O)[nH]1 (stereo partly drawn) [Compound 1, 6-((4,6-dimethyl-2-oxo-1,2-dihydropyridin-3-yl)methyl)-2(trans-4-(dimethylamino)cyclohexyl)-2,4-dimethyl-7,8-dihydro-[1,3]dioxolo[4,5-g]isoquinolin-5(6H)-one]
IC50 (EZH1): 97.6 nM | IC50 (EZH2): 14.3 nM

Cc1cc(C)c(CN2CCc3cc4c(cc3C2=O)OC(C)([C@H]2CC[C@H](N(C)C)CC2)O4)c(=O)[nH]1 (stereo partly drawn) [Compound 2, 6-((4,6-dimethyl-2-oxo-1,2-dihydropyridin-3-yl)methyl)-2(trans-4-(dimethylamino)cyclohexyl)-2-methyl-7,8-dihydro-[1,3]dioxolo[4,5-g]isoquinolin-5(6H)-one]
IC50 (EZH1): 371 nM | IC50 (EZH2): 7.9 nM

Cc1cc(C)c(CN2CCc3c(Cl)c4c(c(Cl)c3C2=O)OC(C)([C@H]2CC[C@H](N(C)C)CC2)O4)c(=O)[nH]1 (stereo partly drawn) [Compound 7, 4,9-dichloro-6-((4,6-dimethyl-2-oxo-1,2-dihydropyridin-3-yl)methyl)-2-(trans-4-(dimethylamino)cyclohexyl)-2-methyl-7,8-dihydro-[1,3]dioxolo[4,5-g]isoquinolin-5(6H)-one]
IC50 (EZH1): 54 nM | GI50 [1]: 4.8 nM | IC50 (EZH2): 3.8 nM

CCCc1cc(C)[nH]c(=O)c1CN1CCc2c(Cl)c3c(c(C)c2C1=O)OC(C)([C@H]1CC[C@H](N(C)C)CC1)O3 (stereo partly drawn) [Compound 14, 9-chloro-2-(trans-4-(dimethylamino)cyclohexyl)-2,4-dimethyl-6-((6-methyl-2-oxo-4-propyl-1,2-dihydropyridin-3-yl)methyl)-7,8-dihydro-[1,3]dioxolo[4,5-g]isoquinolin-5(6H)-one]
IC50 (EZH1): 27 nM | GI50 [1]: 50 nM | IC50 (EZH2): 3.2 nM

CCN[C@H]1CC[C@H](C2(C)Oc3c(C)c4c(c(Cl)c3O2)CCN(Cc2c(C)cc(C)[nH]c2=O)C4=O)CC1 (stereo partly drawn) [Compound 15, 9-chloro-6-((4,6-dimethyl-2-oxo-1,2-dihydropyridin-3-yl)methyl)-2-(trans-4-(ethylamino)cyclohexyl)-2,4-dimethyl-7,8-dihydro-[1,3]dioxolo[4,5-g]isoquinolin-5(6H)-one]
IC50 (EZH1): 65 nM | GI50 [1]: 18 nM | IC50 (EZH2): 3.6 nM

CCN(CC)[C@H]1CC[C@H](C2(C)Oc3c(C)c4c(c(Cl)c3O2)CCN(Cc2c(C)cc(C)[nH]c2=O)C4=O)CC1 (stereo partly drawn) [Compound 16, 9-chloro-2-(trans-4-(diethylamino)cyclohexyl)-6-((4,6-dimethyl-2-oxo-1,2-dihydropyridin-3-yl)methyl)-2,4-dimethyl-7,8-dihydro-[1,3]dioxolo[4,5-g]isoquinolin-5(6H)-one]
IC50 (EZH1): 89 nM | GI50 [1]: 68 nM | IC50 (EZH2): 11 nM

Cc1cc(C)c(CN2CCc3c(Cl)c4c(c(C)c3C2=O)OC(C)([C@H]2CC[C@H](N3CCCCC3)CC2)O4)c(=O)[nH]1 (stereo partly drawn) [Compound 17, 9-chloro-6-((4,6-dimethyl-2-oxo-1,2-dihydropyridin-3-yl)methyl)-2,4-dimethyl-2-(trans-4-(piperidin-1-yl)cyclohexyl)-7,8-dihydro-[1,3]dioxolo[4,5-g]isoquinolin-5(6H)-one]
IC50 (EZH1): 74 nM | GI50 [1]: 52 nM | IC50 (EZH2): 5.6 nM

Cc1cc(C)c(CN2CCc3c(Cl)c4c(c(C)c3C2=O)OC(C)([C@H]2CC[C@H](N3CCCC3)CC2)O4)c(=O)[nH]1 (stereo partly drawn) [Compound 18, 9-chloro-6-((4,6-dimethyl-2-oxo-1,2-dihydropyridin-3-yl)methyl)-2,4-dimethyl-2-(trans-4-(pyrrolidin-1-yl)cyclohexyl)-7,8-dihydro-[1,3]dioxolo[4,5-g]isoquinolin-5(6H)-one]
IC50 (EZH1): 47 nM | GI50 [1]: 16 nM | IC50 (EZH2): 4.3 nM

Cc1cc(C)c(CN2CCc3c(Cl)c4c(c(C)c3C2=O)OC(C)(C[C@H]2CC[C@H](N)CC2)O4)c(=O)[nH]1 (stereo partly shown) [Compound 20]
IC50 (EZH1): 48 nM | GI50 [1]: 18 nM | IC50 (EZH2): 3.7 nM

Cc1cc(C)c(CN2CCc3c(Cl)c4c(c(C)c3C2=O)OC(C)(C[C@H]2CC[C@H](N(C)C)CC2)O4)c(=O)[nH]1 (stereo partly drawn) [Compound 21, 9-chloro-6-((4,6-dimethyl-2-oxo-1,2-dihydropyridin-3-yl)methyl)-2-((trans-4-(dimethylamino)cyclohexyl)methyl)-2,4-dimethyl-7,8-dihydro-[1,3]dioxolo[4,5-g]isoquinolin-5(6H)-one]
IC50 (EZH1): 137 nM | GI50 [1]: 75 nM | IC50 (EZH2): 7.2 nM

Cc1cc(C)c(CN2CCc3c(Cl)c4c(c(C)c3C2=O)OC(C)(C2CCCCC2)O4)c(=O)[nH]1 (stereo not shown) [Compound 22, 9-chloro-2-cyclohexyl-6-((4,6-dimethyl-2-oxo-1,2-dihydropyridin-3-yl)methyl)-2,4-dimethyl-7,8-dihydro-[1,3]dioxolo[4,5-g]isoquinolin-5(6H)-one]
IC50 (EZH1): 180 nM | GI50 [1]: > 1000 nM | IC50 (EZH2): 16 nM

Cc1cc(C)c(CN2CCc3c(Cl)c4c(c(C)c3C2=O)OC(C)(C2CCCC2)O4)c(=O)[nH]1 (stereo not shown) [Compound 23, 9-chloro-2-cyclopentyl-6-((4,6-dimethyl-2-oxo-1,2-dihydropyridin-3-yl)methyl)-2,4-dimethyl-7,8-dihydro-[1,3]dioxolo[4,5-g]isoquinolin-5(6H)-one]
GI50 [1]: > 1000 nM | IC50 (EZH2): 4.4 nM

Cc1cc(C)c(CN2CCc3c(Cl)c4c(c(C)c3C2=O)OC(C)(C2CCOCC2)O4)c(=O)[nH]1 (stereo not shown) [Compound 24, 9-chloro-6-((4,6-dimethyl-2-oxo-1,2-dihydropyridin-3-yl)methyl)-2,4-dimethyl-2-(tetrahydro-2H-pyran-4-yl)-7,8-dihydro-[1,3]dioxolo[4,5-g]isoquinolin-5(6H)-one]
IC50 (EZH1): 34 nM | GI50 [1]: 62 nM | IC50 (EZH2): 3 nM

Cc1cc(C)c(CN2CCc3c(Cl)c4c(c(C)c3C2=O)OC(C)(c2ccc(N(C)C)cc2)O4)c(=O)[nH]1 (stereo not shown) [Compound 25, 9-chloro-6-((4,6-dimethyl-2-oxo-1,2-dihydropyridin-3-yl)methyl)-2-(4-(dimethylamino)phenyl)-2,4-dimethyl-7,8-dihydro-[1,3]dioxolo[4,5-g]isoquinolin-5(6H)-one]
IC50 (EZH1): 166 nM | IC50 (EZH2): 11 nM

Cc1cc(C)c(CN2CCc3c(Cl)c4c(c(C)c3C2=O)OC(C)(CCCCN(C)C)O4)c(=O)[nH]1 (stereo not shown) [Compound 26, 9-chloro-6-((4,6-dimethyl-2-oxo-1,2-dihydropyridin-3-yl)methyl)-2-(4-(dimethylamino)butyl)-2,4-dimethyl-7,8-dihydro-[1,3]dioxolo[4,5-g]isoquinolin-5(6H)-one]
IC50 (EZH1): 85 nM | GI50 [1]: 99 nM | IC50 (EZH2): 6.2 nM

Cc1cc(C)c(CN2CCc3c(Cl)c4c(c(C)c3C2=O)OC(C)(c2c(C)noc2C)O4)c(=O)[nH]1 (stereo not shown) [Compound 27]
IC50 (EZH1): 310 nM | IC50 (EZH2): 3.9 nM

Cc1cc(C)c(CN2CCc3c(C)c4c(c(C)c3C2=O)OC(C)([C@H]2CC[C@H](N)CC2)O4)c(=O)[nH]1 (stereo partly drawn) [Compound 38, 2-(trans-4-aminocyclohexyl)-6-((4,6-dimethyl-2-oxo-1,2-dihydropyridin-3-yl)methyl)-2,4,9-trimethyl-7,8-dihydro-[1,3]dioxolo[4,5-g]isoquinolin-5(6H)-one]
IC50 (EZH1): 54 nM | IC50 (EZH2): 4.4 nM

Cc1cc(C)c(CN2CCc3c(C)c4c(c(C)c3C2=O)OC(C)(C2CCCCC2)O4)c(=O)[nH]1 (stereo not shown) [Compound 44, 2-cyclohexyl-6-((4,6-dimethyl-2-oxo-1,2-dihydropyridin-3-yl)methyl)-2,4,9-trimethyl-7,8-dihydro-[1,3]dioxolo[4,5-g]isoquinolin-5(6H)-one]
IC50 (EZH1): 34 nM | IC50 (EZH2): 0.4 nM

CCN[C@H]1CC[C@H](C2(C)Oc3c(C)c4c(c(C)c3O2)C(=O)N(Cc2c(OC)cc(C)[nH]c2=O)CC4)CC1 (stereo partly drawn) [Compound 45, 2-(trans-4-(ethylamino)cyclohexyl)-6-((4-methoxy-6-methyl-2-oxo-1,2-dihydropyridin-3-yl)methyl)-2,4,9-trimethyl-7,8-dihydro-[1,3]dioxolo[4,5-g]isoquinolin-5(6H)-one]
IC50 (EZH1): 18 nM | IC50 (EZH2): 6.2 nM

CCN(CC)[C@H]1CC[C@H](C2(C)Oc3c(C)c4c(c(C)c3O2)C(=O)N(Cc2c(OC)cc(C)[nH]c2=O)CC4)CC1 (stereo partly drawn) [Compound 46, 2-(trans-4-(diethylamino)cyclohexyl)-6-((4-methoxy-6-methyl-2-oxo-1,2-dihydropyridin-3-yl)methyl)-2,4,9-trimethyl-7,8-dihydro-[1,3]dioxolo[4,5-g]isoquinolin-5(6H)-one]
IC50 (EZH1): 16 nM | IC50 (EZH2): 9.7 nM

CCN(C)[C@H]1CC[C@H](C2(C)Oc3c(C)c4c(c(C)c3O2)C(=O)N(Cc2c(OC)cc(C)[nH]c2=O)CC4)CC1 (stereo partly shown) [Compound 47]
IC50 (EZH1): 20 nM | IC50 (EZH2): 7 nM

Cc1cc(C)c(CN2CCc3c(c(C)c4c(c3-c3ccc(CN5CCOCC5)cc3)OC(C)([C@H]3CC[C@H](N(C)C)CC3)O4)C2=O)c(=O)[nH]1 (stereo partly drawn) [Compound 55, 6-((4,6-dimethyl-2-oxo-1,2-dihydropyridin-3-yl)methyl)-2-(trans-4-(dimethylamino)cyclohexyl)-2,4-dimethyl-9-(4-(morpholinomethyl)phenyl)-7,8-dihydro-[1,3]dioxolo[4,5-g]isoquinolin-5(6H)-one]
IC50 (EZH1): 26 nM | IC50 (EZH2): 5.6 nM

Source: US12344618B2, “Heterotricyclic derivative compound and use of same” (HANMI PHARMACEUTICAL CO., LTD., priority 2019, dated 2025)
